Data published in US20040122080A1, “Synergist combinations of retinoid receptor ligands and selected cytotoxic agents for treatment of cancer” (priority 2004, published 2004).

Key:
[1] = system: MCF7 cells; test: Anchorage-dependent colony formation assay; assay type: cell-based, human; settings: for colony formation and morphology: 6 days exposure, crystal violet
Description: (§1) To determine effects of RAR agonists on anchorage-dependent colony size, number and morphology, MCF7 cells were plated in 6 well plates (500 cells/well) in DMEM supplemented with 10% FBS and grown for 5 days. The medium was then removed and the compounds were added to the medium supplemented with 5% of charcoal stripped FBS (HyClone). The compound containing medium was renewed after 3 days and cultures were allowed to grow an additional 3 days. After 6 days exposure to compounds, colonies were stained with crystal violet. Colonies were counted to quantify colony area and number and photographed under light microscopy to assess effects on colony size and morphology. The results presented are representative of two independent experiments. Immunoblotting MCF-7 cellular lysates were prepared for Western blotting in accordance with procedures described by Sambrook et al. (MOLECULAR CLONING: A LABORATORY MANUAL, 2nd Ed.; Cold Spring Harbor Laboratory Press, Cold Spring Harbor, N. Y. (1989)). Cell lysates were prepared by adding 200 μl of lysis buffer (Tris-HCl, pH 6.8, 20 mM, EDTA 1 mM, NP-40 0.5%) containing a protease inhibitor cocktail (Roche) to each well of 6 well plates. The lysates were then cleared by centrifugation at 10,000 rpm, 4EC for 5 minutes and supernatants were adjusted with Laemmli sample buffer and processed by 10 or 15% SDS-polyacrylamide gel electrophoresis (PAGE), followed by transfer to nitrocellulose membranes (Biorad). Membranes were processed by standard methods and incubated with primary antibodies for 1 hour at room temperature or overnight at 4EC. Bound antibody was visualized using a goat anti-IgG secondary antibody conjugated to HRP and a chemiluminescent detection system (ECL, Amersham Pharmacia Biotech).

[2] = system: MCF7, OVCAR3 and SQCC-Y1 cells; test: Growth inhibition, statements across the three human tumor cell lines; assay type: cell-based; settings: co-treatment with paclitaxel, Table 1
Description: (§2) Cellular proliferation was quantified using [^3H] thymidine incorporation. Cells were plated in 96 well plates in media containing 10% fetal bovine serum (FBS) and allowed to adhere overnight. Cell medium was removed the following day and the indicated compounds were added to fresh medium supplemented with 10% of charcoal stripped FBS (HyClone). Compound-containing medium was renewed after 3 days exposure. After 6 day treatment, 4 μCi/ml of [^3H]thymidine (NEN Life Science Products) were added to each well for 2 to 4 hours. The cells were then trypsinized and harvested on GF/B glass fiber filters. [^3H]thymidine incorporated into the DNA was measured in a scintillation Topcount counter (Packard). The results were expressed as percent inhibition compared to the DMSO vehicle.

[3] = system: Jun N-terminal Kinase (JNK); test: Jun N-terminal Kinase assay (immunoprecipitated JNK from MCF7 cells); assay type: cell-based, human
Description: Activity of JNK was measured in accordance with procedures described by Coso et al. (Cell 1995 81:1137-1146) with minor modifications. MCF-7 cells were plated in 6-well plates in DMEM supplemented with 10% FBS and allowed to adhere overnight. The next day, the cells were switched to DMEM supplemented with 0.5% charcoal-stripped FBS (HyClone) and 100 nM of indicated retinoids or 0.1% DMSO was added to the cells for 24 hours before an additional 2 to 3 hours incubation in the presence of 1 μM of paclitaxel. Cell lysates was prepared from each well as described and cleared by centrifugation. JNK was immunoprecipitated from each lysate by incubating overnight at 4° C. with 1 μg of anti-hJNK (Pharmingen) and 25 μl of protein G agarose beads (Gibco-BRL) previously washed with the lysis buffer. Immune complexes were pelleted by centrifugation 2 minutes at 10,000 rpm 4° C. and washed 3 times with PBS containing 1% NP40 and 2 mM of Na3VO4, once with 100 mM Tris-HCl pH7.5, 0.5 mM LiCl and once with Kinase Reaction Buffer (KRB: 12.5 mM MOPS pH7.5, 12.5 mM β-glycerolphosphate, 7.5 mM MgCl2, 0.5 mM EGTA, 0.5 mM NaF, 0.5 mM Na3VO4). […] The kinase reaction was terminated by adding 10 μl of Laemmli sample buffer. resolved by 10% SDS-PAGE and phosphorylated GST-c-Jun visualized by autoradiography and quantified by densitometry. […]

[4] = system: AP1 transcriptional activity; test: AP1 reporter assay, MCF7 cells with (AP1)5x-tk-Luc; assay type: cell-based, human
Description: AP1 transcriptional activity was assessed in MCF7 cells stably transfected with (AP1)5x-tk-Luc reporter gene (IGBMC, France). (AP1)5x corresponds to the collagenase gene AP1 response element repeated 5 times in tandem, tk is the minimal thymidine kinase promoter, and Luc the coding sequence of the luciferase gene. MCF7 cells were plated in 12-well plates at a density of 400,000 cells per well in DMEM supplemented with 10% FBS and allowed to adhere overnight. The next day, the medium was removed, the cells were washed with PBS and supplemented with DMEM medium containing 0.5% of charcoal stripped FBS (HyClone). […] The luciferase activity was measured by using Luc-lite system from Packard according to manufacturer's recommendations. Results are expressed as percent activity compared to PMA (10 nM) which was assigned as 100% activity. The data presented are the mean ± sem (standard error of the mean)of 3 independent experiments.

[5] = system: MCF7; test: Mitogenic assay, growth inhibition ([3H]-thymidine incorporation), retinoid/paclitaxel co-treatment; assay type: cell-based, human
Description: as §2

[6] = system: SQCC-Y1; test: as above; assay type: cell-based, human
Description: as §2

[7] = system: OVCAR3; test: as above; assay type: cell-based, human
Description: as §2

[8] = system: Bcl-2; test: Bcl-2 expression and phosphorylation (immunoblotting); assay type: cell-based, human; settings: MCF7; single agent
Description: as §1, with “The lysates were then cleared by centrifugation at 10,000 rpm, 4EC for 5 minutes and supernatants were adjusted with Laemmli sample buffer and processed by 10 or 15% SDS-polyacrylamide gel electrophoresis (PAGE), followed by transfer to nitrocellulose membranes (Biorad). Membranes were processed by standard methods and incubated with primary antibodies for 1 hour at room temperature or overnight at 4EC. Bound antibody was visualized using a goat anti-IgG secondary antibody conjugated to HRP and a chemiluminescent detection system (ECL, Amersham Pharmacia Biotech).” left out

[9] = system: tubulin; test: Tubulin polymerization assay in MCF7 cells; assay type: cell-based, human; settings: single agent, Western blotting of soluble and polymerized tubulin
Description: The effects of retinoid and paclitaxel exposure on free and polymerized tubulin levels were determined in accordance with procedures described by Giannakakou et al. (J. Biol. Chem. 1997 272:17118-17125). MCF7 cells were plated in 6 well plates in DMEM supplemented with 10% FBS and allowed to adhere overnight. Cell medium was removed the following day and the indicated compounds were added to fresh medium supplemented with 5% of charcoal stripped FBS (HyClone). The cells were grown for 3 days in the presence of the retinoids before paclitaxel was added for 1 hour. Soluble and polymerized tubulin were extracted and respective levels were assessed by Western blotting as described above using anti-(tubulin antibodies (n=2).

[10] = Homo sapiens, 144 h, maximal inhibition, paclitaxel co-treated with the labelled retinoid (none = paclitaxel alone), read-out: Efficacy (percent inhibition compared with DMSO)

With `CC1=C(/C=C/C(C)=C/C=C/C(C)=C/C(=O)O)C(C)(C)CCC1` [ATRA, all trans retinoic acid] the “colony formation and morphology” value ([1]; MCF7) was “impaired colony formation” and the “apoptosis in treated colonies” value ([1]; MCF7 colonies) was “high level of apoptosis”.

For `Cc1cccc(C2=CC(=O)C(C)(C)c3cc4ccc(-c5ccc(C(=O)O)cc5)cc4cc32)c1` [Formula II, 4-(5,6-dihydro-5,5-dimethyl-6-oxo-8-(3-methyl-phenyl)-anthracen-2-yl)-benzoic acid], the “effect on the effective dose of paclitaxel required to induce cytotoxicity” value [2] was “lowered the effective dose of paclitaxel required to induce cytotoxicity”, the “effect on paclitaxel-induced JNK activity” value ([3]; combination with paclitaxel) was “did not modify paclitaxel-induced JNK activity” and the “colony formation and morphology” value ([1]; MCF7) was “strongly impaired colony formation”. For the same compound, the “sensitivity of the cells to paclitaxel” value ([1]; MCF7, pre-treatment for three days) was “significantly enhanced the sensitivity of the cells to paclitaxel” and the “effect on paclitaxel/PMA-induced AP1 activity” value ([4]; combination with paclitaxel) was “did enhance the effects of paclitaxel/PMA or AP1 activity”.

For `CC(C)(C)/C=C\C1=CCC(C)(C)c2ccc(/C=C/c3ccc(C(=O)O)cc3)cc21` [Formula Ia], the “effect on the effective dose of paclitaxel required to induce cytotoxicity” value [2] was “dramatically lowered the effective dose of paclitaxel required to induce cytotoxicity”, the “decrease of the IC50 of paclitaxel in the presence of the retinoid” value (from here on “decrease of the IC50 of paclitaxel”) [5] was 8 fold and the “decrease of the IC50 of paclitaxel” value [6] was 32 fold. For the same compound, the “decrease of the IC50 of paclitaxel” value [7] was 15 fold, the “colony formation and morphology” value ([1]; MCF7) was “dramatic change in the morphology of both the colonies and the cells” and the inhibition at 0.05 µM ([4]; Homo sapiens, MCF7, at 50 nM, PMA 10 nM, 6 hours, read-out: inhibition of PMA-induced AP1 reporter activity, maximum) was 30 to 45%.

In the case of `CC(=O)O[C@H]1C(=O)[C@@]2(C)[C@H]([C@H](OC(=O)c3ccccc3)[C@]3(O)C[C@H](OC(=O)[C@H](O)[C@@H](NC(=O)c4ccccc4)c4ccccc4)C(C)=C1C3(C)C)[C@]1(OC(C)=O)CO[C@@H]1C[C@@H]2O` [paclitaxel], the “phosphorylation of Bcl-2” value [8] is reported as “dose-dependent increase”, the polymerization of tubulin [9] is reported as “dose-dependent polymerization of tubulin” and the “increase in JNK activity” value ([3]; single agent, paclitaxel 1 μM 2 to 3 hours, retinoids 100 nM 24 hours) is reported as 2.5 fold. It also gave an Emax [5, 10] of 100%, an IC50 ([6]; Homo sapiens, 144 h, 6 day treatment, paclitaxel co-treated with the labelled retinoid (none = paclitaxel alone), mean of 2 to 5 experiments) of 0.16 nM and an Emax [6, 10] of 100%. For the same compound, the IC50 ([7]; Homo sapiens, OVCAR-3, 144 h, 6 day treatment, paclitaxel co-treated with the labelled retinoid (none = paclitaxel alone), mean of 2 to 5 experiments) was 0.6 nM, the Emax ([7]; Homo sapiens, OVCAR-3, 144 h, maximal inhibition, paclitaxel co-treated with the labelled retinoid (none = paclitaxel alone), read-out: Efficacy (percent inhibition compared with DMSO)) was 99% and the “enhancement of PMA-induced AP1 transcriptional activity” value ([4]; single agent, paclitaxel 1 μM, PMA 10 nM) was 20%.
